Source: ChEMBL document CHEMBL4340567, “Generation of C5-desoxy analogs of tetrahydroisoquinoline alkaloids exhibiting potent DNA alkylating ability” (Bioorg Med Chem Lett, 2019)
The source made the active and inactive calls. The calls are words filed in the database; no cut-off is given here.

Legend:
[1] = Induction of alkylation in fluorescein-labelled 5'-GGG-3' double stranded DNA (unknown origin) at 100 uM incubated for 30 mins by EMSA relative to control
[2] = Induction of alkylation in fluorescein-labelled 5'-ATA-3' double stranded DNA (unknown origin) at 100 uM incubated for 30 mins by EMSA relative to control
[3] = Induction of alkylation in fluorescein-labelled 5'-AGC-3' double stranded DNA (unknown origin) at 100 uM incubated for 30 mins by EMSA relative to control
[4] = Induction of alkylation in fluorescein-labelled 5'-AGT-3' double stranded DNA (unknown origin) at 100 uM incubated for 30 mins by EMSA relative to control
[5] = Induction of alkylation in fluorescein-labelled 5'-CGG-3' double stranded DNA (unknown origin) at 100 uM incubated for 30 mins by EMSA relative to control
[6] = Induction of alkylation in fluorescein-labelled 5'-GGC-3' double stranded DNA (unknown origin) at 100 uM incubated for 30 mins by EMSA relative to control
[7] = Binding affinity to FAM-labelled 5'-GGG-3' double stranded DNA (unknown origin) assessed as migration of compound from 5'-AGT-3' to 5'-GGC-3' at 100 uM incubated for 30 mins by EMSA
[8] = Induction of alkylation in fluorescein-labelled 5'-GGG-3' double stranded DNA (unknown origin) at 5 uM incubated for 30 mins by EMSA relative to control
[9] = Induction of alkylation in fluorescein-labelled 5'-GGG-3' double stranded DNA (unknown origin) at 2.5 uM incubated for 30 mins by EMSA relative to control
[10] = Induction of alkylation in fluorescein-labelled 5'-GGG-3' double stranded DNA (unknown origin) at 10 uM incubated for 30 mins by EMSA relative to control
[11] = Induction of alkylation in fluorescein-labelled 5'-GGG-3' double stranded DNA (unknown origin) at 25 uM incubated for 30 mins by EMSA relative to control
[12] = Reversible binding affinity to fluorescein-labelled 5'-GGG-3' double stranded DNA (unknown origin) at 100 uM incubated for 30 mins in presence of KCN by EMSA
[13] = Binding affinity to fluorescein-labelled 5'-GGG-3' double stranded DNA (unknown origin) assessed as formation of compound-dsDNA oligomer complex at five equivalents incubated for 30 mins by EMSA relative to control
[14] = Induction of alkylation in fluorescein-labelled 5'-GGG-3' double stranded DNA (unknown origin) at 50 uM incubated for 30 mins by EMSA relative to control
[15] = Induction of alkylation in fluorescein-labelled 5'-GGG-3' double stranded DNA (unknown origin) incubated for 30 mins by EMSA relative to control

Activity [1] | Activity [2] | Activity [3] [%] | Activity [4] | Activity [5] [%] | Activity [6] [%] | SMILES | other results
inactive |  |  |  |  |  | CCCCCCCCC/C=C/COC(=O)N[C@@H](C)C(=O)NC[C@H]1c2c(cc(C)c(OC)c2O)C[C@H]2[C@H]3c4c(cc(C)c(OC)c4O)C[C@@H]([C@H](C#N)N12)N3C | 
22% |  |  |  |  |  | COc1c(C)cc2c(c1O)[C@@H]1[C@@H]3Cc4cc(C)c(OC)c(O)c4[C@H](CNC(=O)[C@H](C)NC(=O)OCC4c5ccccc5-c5ccccc54)N3[C@@H](C#N)[C@H](C2)N1C | 
31% | inactive | 17 | inactive | 33 | 53 | COC1=C(C)C(=O)C2=C(C1=O)[C@H](CNC(=O)[C@H](C)N)N1[C@@H](C#N)[C@@H]3Cc4cc(C)c(OC)c(O)c4[C@H]([C@@H]1C2)N3C | 
> 90% | inactive | 80 | 36% | 63 | 94 | COc1c(C)cc2c(c1O)[C@@H]1[C@@H]3Cc4cc(C)c(OC)c(O)c4[C@H](CNC(=O)[C@H](C)N)N3[C@@H](C#N)[C@H](C2)N1C | Activity [7]: Active; Activity [8]: 41%; Activity [9]: 10%; Activity [10]: 85%; Activity [11]: > 95%; Activity [12]: Active; Activity [13]: > 95%; Activity [14]: > 95%; Activity [15]: Dose-dependent effect
86% |  |  |  |  |  | C=CCOC(=O)N[C@@H](C)C(=O)NC[C@H]1c2c(cc(C)c(OC)c2O)C[C@H]2[C@H]3c4c(cc(C)c(OC)c4O)C[C@@H]([C@H](C#N)N12)N3C | 
